# Source: patent US7635692B2, “Composition for the prevention of osteoporosis comprising a combination of isoflavones and polyunsaturated fatty acids” (DSM IP Assets B.V., priority 2001, dated 2009)
# Key:
# [1] = tested on: ovariectomized rat osteoporosis (OVX) model; assay: Serum osteocalcin (bone formation marker) in OVX rats; format: in vivo
# Experimental: Osteocalcin, a biochemical marker for bone formation, is a bone-specific protein secreted primarily in osteoblasts, i.e. the bone forming cells. Serum osteocalcin was measured as marker for bone formation.
# (§1) In the experimental set up data were elaborated using the ovariectomized rat osteoporosis (OVX) model. This model mimics the estrogen deficient status as found in postmenopausal women or poststerilized female pets leading to osteoporosis. The SHAM group with intact ovaries served as control. Each test group consisted of 10-12 animals. The feed used was free of isoflavones, such as, for example, genistein. The test compounds in various combinations as given in Table 1 have been administered by feed admix. […] The administration of vitamin K1, in an amount of 20 μg/kg feed corresponds to a daily dosage of about 1 μg/kg BW, the estimated daily requirement of vitamin K1. The amount of vitamin D3 was 500 IU/kg feed which corresponds to a daily dosage of 25 IU/kg BW, the estimated daily requirement. For fortification, PUFA (5% of ROPUPA “30” n-3 Food Oil) was added to the feed corresponding to a PUPA fortification of % in feed as given in Table 1. Bone mineral density, osteocalcin, and deoxypyridinolin have been measured 84 days post intervention.
# Serum Osteocalcin (bone formation marker) measurement in OVX rats: […]
# [2] = tested on: ovariectomized rat osteoporosis (OVX) model; assay: Bone mineral density (BMD) of femur by DXA in the OVX rat model; format: in vivo; conditions: OVX rats
# Text: In the following experimental section dual-energy X-ray absorptiometry (DXA) was used to measure bone mineral density.
# In the experimental set up data were elaborated using the ovariectomized rat osteoporosis (OVX) model. This model mimics the estrogen deficient status as found in postmenopausal women or poststerilized female pets leading to osteoporosis. The SHAM group with intact ovaries served as control. Each test group consisted of 10-12 animals. The feed used was free of isoflavones, such as, for example, genistein. […] The administration of vitamin K1, in an amount of 20 μg/kg feed corresponds to a daily dosage of about 1 μg/kg BW, the estimated daily requirement of vitamin K1. The amount of vitamin D3 was 500 IU/kg feed which corresponds to a daily dosage of 25 IU/kg BW, the estimated daily requirement. For fortification, PUFA (5% of ROPUPA “30” n-3 Food Oil) was added to the feed corresponding to a PUPA fortification of % in feed as given in Table 1. Bone mineral density, osteocalcin, and deoxypyridinolin have been measured 84 days post intervention.
# Bone mineral density (BMD) measurement in the femur of OVX rats: […]
# [3] = tested on: ovariectomized rat osteoporosis (OVX) model; assay: Deoxypyridinoline excretion (bone resorption marker) in OVX rats; format: in vivo
# Experimental: Deoxypyridinoline (DPD) crosslinks excretion provides a highly specific marker for bone resorption. DPD crosslinks excretion was measured as a marker for bone resorption. The values have to be corrected for urinary concentration by creatinine measurement as it is known in the art.
# as §1
# Deoxypyridinoline (bone resorption marker) measurement in OVX rats: […]
# [4] = Plasma genistein level in rats after feed admix; format: in vivo, rat; conditions: genistein 15 mg/kg BW per day, comparable to Japanese people on a traditional diet
# Text: as §1
# [5] = 84 days post intervention, compared with the other groups
structure (smiles),measurement,setting,value
"O=c1c(-c2ccc(O)cc2)coc2cc(O)cc(O)c12 [Genistein, 4′,5,7-trihydroxy-isoflavone]",Effect on serum osteocalcin levels (in words),[1]; [5],reduced osteocalcin levels to control values
same,"Serum osteocalcin, Mean serum conc.","[1]; feed admix, day 84 postintervention",14.6 ng/mL
same,Effect on BMD (in words),[2]; [5],improved BMD to control values
same,"Bone mineral density of femur, Mean","[2]; feed admix, day 84 postintervention, DXA",0.143 g/cm^2
same,Effect on DPD excretion (in words),[3]; [5],restores DPD excretion to values of the control group
same,"Deoxypyridinoline excretion, Mean","[3]; feed admix, day 84 postintervention, corrected by creatinine",220.5 nmol DPD/mmol Creatinine
same,plasma genistein level,[4],~280 nM
